Assay [1] concerns the target T1, Cholinesterase (Homo sapiens, UniProt P06276).
Description: Inhibition of human plasmatic BChE after 5 mins
The next assay concerns the target Acetylcholinesterase (Homo sapiens, UniProt P22303).
For assay [2], the target named is T1, Cholinesterase. Description: Inhibition of human plasmatic BChE at 1 mM to 0.1 nM after 5 mins. The assay is classed as cell-free. Particulars: Plasma.

Calls of active or inactive are those of the source. The rule behind the calls is not given here.

A word on the IC50: it is the point on the concentration scale where inhibition reaches its midpoint. Read a low IC50 as greater potency.

T1 sequence (P06276 whole entry): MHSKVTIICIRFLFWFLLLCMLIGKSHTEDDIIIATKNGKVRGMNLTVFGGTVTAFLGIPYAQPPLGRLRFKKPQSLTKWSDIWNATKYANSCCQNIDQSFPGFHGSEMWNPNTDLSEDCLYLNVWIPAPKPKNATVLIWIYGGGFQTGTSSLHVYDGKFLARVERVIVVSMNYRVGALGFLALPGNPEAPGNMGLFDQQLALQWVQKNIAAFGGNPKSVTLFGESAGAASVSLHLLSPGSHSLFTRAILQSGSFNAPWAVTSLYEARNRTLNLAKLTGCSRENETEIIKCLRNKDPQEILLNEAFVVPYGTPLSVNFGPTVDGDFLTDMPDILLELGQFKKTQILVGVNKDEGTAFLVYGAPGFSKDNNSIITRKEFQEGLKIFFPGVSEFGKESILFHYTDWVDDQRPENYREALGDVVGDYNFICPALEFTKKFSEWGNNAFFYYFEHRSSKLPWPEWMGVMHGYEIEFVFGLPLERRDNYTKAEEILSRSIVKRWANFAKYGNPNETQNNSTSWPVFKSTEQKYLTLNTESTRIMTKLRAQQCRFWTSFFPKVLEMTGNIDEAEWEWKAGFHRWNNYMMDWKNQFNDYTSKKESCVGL
Acetylcholinesterase, sequence (P22303 whole entry): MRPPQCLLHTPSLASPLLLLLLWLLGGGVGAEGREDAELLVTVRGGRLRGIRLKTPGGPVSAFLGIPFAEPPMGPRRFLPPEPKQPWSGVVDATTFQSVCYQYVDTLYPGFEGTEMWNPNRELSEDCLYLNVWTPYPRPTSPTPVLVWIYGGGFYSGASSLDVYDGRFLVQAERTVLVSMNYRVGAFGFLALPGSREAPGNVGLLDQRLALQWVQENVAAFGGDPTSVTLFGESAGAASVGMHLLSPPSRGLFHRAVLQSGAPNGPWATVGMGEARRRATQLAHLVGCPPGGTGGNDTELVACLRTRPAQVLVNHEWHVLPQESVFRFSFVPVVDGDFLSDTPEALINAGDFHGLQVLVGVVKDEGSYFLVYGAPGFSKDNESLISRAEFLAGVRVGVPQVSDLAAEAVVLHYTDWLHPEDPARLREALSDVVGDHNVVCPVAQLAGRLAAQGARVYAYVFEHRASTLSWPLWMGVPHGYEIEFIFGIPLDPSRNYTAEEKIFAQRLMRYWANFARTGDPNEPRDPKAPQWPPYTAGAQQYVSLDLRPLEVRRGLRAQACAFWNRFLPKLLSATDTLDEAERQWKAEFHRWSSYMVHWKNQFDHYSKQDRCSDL
Description for Acetylcholinesterase: Inhibition of human recombinant AChE after 5 mins

For `CCCNc1c2c(nc3ccc(OC)cc13)CCCC2`, the IC50 at Cholinesterase [1] was determined as 70 µM; against Acetylcholinesterase, 9.2 µM.
Taken in the same sequence, the figures for `CCCCCNc1c2c(nc3ccc(OC)cc13)CCCC2` were 16 µM and 6.7 µM.
Regarding `CCCCCCNc1c2c(nc3ccc(OC)cc13)CCCC2`, the IC50 against Cholinesterase [1] amounted to 1 µM; on Acetylcholinesterase, 0.1 µM.
`CCCCCCCCCCNc1c2c(nc3ccc(OC)cc13)CCCC2`: at Cholinesterase [2], the inhibition entry was “inactive”.
Consider `CCCCCCCCCNc1c2c(nc3ccc(OC)cc13)CCCC2`, for which the IC50 stood at 0.36 µM on Cholinesterase [1] and 1.6 µM on Acetylcholinesterase.
Take `CCCCCCCCCCCCNc1c2c(nc3ccc(OC)cc13)CCCC2`: half-maximal inhibition at Acetylcholinesterase (IC50) was put at 1 µM. Moreover, on Cholinesterase [2], the inhibition result was “inactive”.
With `CCNc1c2c(nc3ccc(OC)cc13)CCCC2`, the values for the IC50 on Cholinesterase [1] and on Acetylcholinesterase were 97 µM and 66 µM, respectively.
In the case of `CCCCCCCNc1c2c(nc3ccc(OC)cc13)CCCC2`, the results for the IC50 against Cholinesterase [1] and against Acetylcholinesterase were 0.04 µM and 0.27 µM, respectively.
Regarding `CCCCNc1c2c(nc3ccc(OC)cc13)CCCC2`, the IC50 was 64 µM at Cholinesterase [1] and 21 µM against Acetylcholinesterase.
Consider `CCCCCCCCCCCCCCCNc1c2c(nc3ccc(OC)cc13)CCCC2`, for which the inhibition result at Cholinesterase [2] was “inactive”.
Consider `CCCCCCCCCCCNc1c2c(nc3ccc(OC)cc13)CCCC2`, for which the inhibition entry on Cholinesterase [2] is “inactive”.
As for `CCCCCCCCNc1c2c(nc3ccc(OC)cc13)CCCC2`, the IC50 against Cholinesterase [1] came out at 0.12 µM; at Acetylcholinesterase, 0.36 µM.
Regarding `CCCCCCCCCCCCCNc1c2c(nc3ccc(OC)cc13)CCCC2`, the IC50 against Acetylcholinesterase turned out to be 100 µM. Further, the inhibition result on Cholinesterase [2] is “inactive”.
The compound `CCCCCCCCCCCCCCNc1c2c(nc3ccc(OC)cc13)CCCC2` had an IC50 against Acetylcholinesterase of 46 µM. Besides, at Cholinesterase [2], the inhibition entry is “inactive”.

(Values after ChEMBL document CHEMBL1255181, “Synthesis and in vitro evaluation of N-alkyl-7-methoxytacrine hydrochlorides as potential cholinesterase inhibitors in Alzheimer disease” (Bioorg Med Chem Lett, 2010).)
